# Assay results published in US12077503B2, “Substituted cyclic amides and their use as herbicides” (FMC CORPORATION, priority 2015, dated 2024).
# Legend:
# Format in all cases: in vivo
# [1] = tested on: barnyardgrass (Echinochloa crus-galli); experiment: Test A postemergence; details: Echinochloa crus-galli, post-emergence, 240 h, read-out: Plant response rating, Barnyardgrass
# In short: (§1)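 Seeds sprayed preemergence with a directed soil spray, or plants at 2 to 10 cm height and one- to two-leaf stage sprayed postemergence, with test chemicals in a non-phytotoxic solvent mixture containing surfactant, in loam soil–sand blend. Injury rated visually against untreated controls after about 10 d in greenhouse, 0 (no effect) to 100 (complete control).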
# corn (Zea mays) = experiment: Test A postemergence; details: Zea mays, post-emergence, 240 h
# In short: as §1
# [2] = tested on: ryegrass, Italian (Italian ryegrass, Lolium multiflorum); experiment: Test A postemergence; details: Lolium multiflorum, post-emergence, 240 h, postemergence, approx. 10 d
# In short: as §1
# [3] = tested on: ragweed (common ragweed, Ambrosia elatior); experiment: Test A postemergence; details: Ambrosia artemisiifolia, post-emergence, 240 h, postemergence, approx. 10 d
# In short: as §1
# [4] = tested on: giant foxtail (Setaria faberii); experiment: Test A postemergence; details: Setaria faberi, post-emergence, 240 h, postemergence, approx. 10 d
# In short: as §1
# [5] = tested on: blackgrass (Alopecurus myosuroides); experiment: Test A postemergence; details: Alopecurus myosuroides, post-emergence, 240 h, read-out: Plant response rating, Blackgrass
# In short: as §1
# [6] = tested on: Galium (catchweed bedstraw, Galium aparine); experiment: Test A postemergence; details: Galium, post-emergence, 240 h, postemergence, approx. 10 d
# In short: as §1
# [7] = tested on: wheat (Triticum aestivum); experiment: Test A postemergence; details: Triticum aestivum, post-emergence, 240 h, postemergence, approx. 10 d
# In short: as §1
# [8] = tested on: pigweed (Amaranthus retroflexus); experiment: Test A postemergence; details: Amaranthus retroflexus, post-emergence, 240 h, postemergence, approx. 10 d
# In short: as §1
# [9] = tested on: barnyardgrass (Echinochloa crus-galli); experiment: Test A preemergence; details: Echinochloa crus-galli, pre-emergence, 240 h
# In short: as §1
# [10] = tested on: ryegrass, Italian (Italian ryegrass, Lolium multiflorum); experiment: Test A preemergence; details: Lolium multiflorum, pre-emergence, 240 h, 500 g ai/ha, preemergence; visual injury rating about 10 d after treatment, 0 to 100 scale (0 no effect, 100 complete control); read-out: Ryegrass, Italian plant response rating
# In short: as §1
# Kochia (Kochia scoparia) = experiment: Test A preemergence; details: Bassia scoparia, pre-emergence, 240 h
# In short: as §1
# [11] = tested on: ragweed (common ragweed, Ambrosia elatior); experiment: Test A preemergence; details: Ambrosia artemisiifolia, pre-emergence, 240 h
# In short: as §1
# [12] = tested on: giant foxtail (Setaria faberii); experiment: Test A preemergence; details: Setaria faberi, pre-emergence, 240 h
# In short: as §1
# [13] = tested on: pigweed (Amaranthus retroflexus); experiment: Test A preemergence; details: Amaranthus retroflexus, pre-emergence, 240 h
# [14] = 125 g ai/ha, Postemergence, visual injury after approximately 10 d, 0 to 100 scale where 0 is no effect and 100 is complete control
# [15] = 500 g ai/ha, postemergence, visual injury, 0 to 100 scale (0 no effect, 100 complete control), approx. 10 d
compound,measurement,setting,value
Cc1ccc([C@H]2CNC(=O)[C@@H]2C(=O)Nc2cccc(F)c2C)cc1C [Compound 1035],pest or weed control at 125 g/ha,[1]; [14],90%
same,pest or weed control at 500 g/ha,[1]; [15],90%
same,"Corn plant response rating (crop injury, 0 = no effect, 100 = complete kill) at 125 g/ha",corn (Zea mays); [14],50%
same,"Corn plant response rating (crop injury, 0 = no effect, 100 = complete kill) at 500 g/ha",corn (Zea mays); [15],60%
same,pest or weed control at 125 g/ha,"[2]; 125 g ai/ha, visual injury on 0 to 100 scale (0 no effect, 100 complete control), read-out: Ryegrass, Italian plant response rating",40%
same,pest or weed control at 500 g/ha,"[2]; 500 g ai/ha, visual injury, 0 to 100 scale (0 no effect, 100 complete control), read-out: Plant response rating, Ryegrass, Italian",60%
same,pest or weed control at 125 g/ha,"[3]; 125 g ai/ha, visual injury on 0 to 100 scale (0 no effect, 100 complete control), read-out: Ragweed plant response rating",0%
same,pest or weed control at 500 g/ha,"[3]; 500 g ai/ha, visual injury, 0 to 100 scale (0 no effect, 100 complete control), read-out: Plant response rating, Ragweed",0%
same,pest or weed control at 125 g/ha,"[4]; 125 g ai/ha, visual injury on 0 to 100 scale (0 no effect, 100 complete control), read-out: Foxtail, Giant plant response rating",50%
same,pest or weed control at 500 g/ha,"[4]; 500 g ai/ha, visual injury, 0 to 100 scale (0 no effect, 100 complete control), read-out: Plant response rating, Foxtail, Giant",90%
same,pest or weed control at 125 g/ha,[5]; [14],40%
same,pest or weed control at 500 g/ha,[5]; [15],60%
same,pest or weed control at 125 g/ha,"[6]; 125 g ai/ha, visual injury on 0 to 100 scale (0 no effect, 100 complete control), read-out: Galium plant response rating",20%
same,pest or weed control at 500 g/ha,"[6]; 500 g ai/ha, visual injury, 0 to 100 scale (0 no effect, 100 complete control), read-out: Plant response rating, Galium",50%
same,plant injury at 125 g/ha,"[7]; 125 g ai/ha, visual injury on 0 to 100 scale (0 no effect, 100 complete control), read-out: Wheat plant response rating",20%
same,plant injury at 500 g/ha,"[7]; 500 g ai/ha, visual injury, 0 to 100 scale (0 no effect, 100 complete control), read-out: Plant response rating, Wheat",70%
same,pest or weed control at 125 g/ha,"[8]; 125 g ai/ha, visual injury on 0 to 100 scale (0 no effect, 100 complete control), read-out: Pigweed plant response rating",0%
same,pest or weed control at 500 g/ha,"[8]; 500 g ai/ha, visual injury, 0 to 100 scale (0 no effect, 100 complete control), read-out: Plant response rating, Pigweed",0%
same,pest or weed control at 125 g/ha,"[9]; 125 g ai/ha, Preemergence, visual injury rating after approximately 10 d, read-out: Barnyardgrass plant response rating (0 to 100 scale, 0 is no effect, 100 is complete control)",90%
same,pest or weed control at 500 g/ha,"[9]; 500 g ai/ha, preemergence, visual injury rating about 10 d after treatment, 0 to 100 scale (0 no effect, 100 complete control), read-out: Barnyardgrass plant response rating",90%
same,pest or weed control at 500 g/ha,[10],70%
same,pest or weed control at 125 g/ha,"Kochia (Kochia scoparia); 125 g ai/ha, Preemergence, visual injury rating after approximately 10 d, read-out: Kochia plant response rating (0 to 100 scale, 0 is no effect, 100 is complete control)",0%
same,pest or weed control at 500 g/ha,"Kochia (Kochia scoparia); 500 g ai/ha, preemergence, visual injury rating about 10 d after treatment, 0 to 100 scale (0 no effect, 100 complete control), read-out: Kochia plant response rating",50%
same,pest or weed control at 125 g/ha,"[11]; 125 g ai/ha, Preemergence, visual injury rating after approximately 10 d, read-out: Ragweed plant response rating (0 to 100 scale, 0 is no effect, 100 is complete control)",20%
same,pest or weed control at 500 g/ha,"[11]; 500 g ai/ha, preemergence, visual injury rating about 10 d after treatment, 0 to 100 scale (0 no effect, 100 complete control), read-out: Ragweed plant response rating",70%
same,pest or weed control at 125 g/ha,"[12]; 125 g ai/ha, Preemergence, visual injury rating after approximately 10 d, read-out: Foxtail, Giant plant response rating (0 to 100 scale, 0 is no effect, 100 is complete control)",90%
same,pest or weed control at 500 g/ha,"[12]; 500 g ai/ha, preemergence, visual injury rating about 10 d after treatment, 0 to 100 scale (0 no effect, 100 complete control), read-out: Foxtail, Giant plant response rating",90%
same,pest or weed control at 125 g/ha,"[13]; 125 g ai/ha, Preemergence, visual injury rating after approximately 10 d, read-out: Pigweed plant response rating (0 to 100 scale, 0 is no effect, 100 is complete control)",0%
same,pest or weed control at 500 g/ha,"[13]; 500 g ai/ha, preemergence, visual injury rating about 10 d after treatment, 0 to 100 scale (0 no effect, 100 complete control), read-out: Pigweed plant response rating",0%
